System: PMA-stimulated P90RSK(Ser380) phosphorylation in HepG2 cells
Assay: Cellular P90RSK(Ser380) Phosphorylation Assay
Format: cell-based
Settings: Homo sapiens, 1.5 hour compound incubation, PMA 100 ng/mL 30 min, normalized to GAPDH, read-out: P-P90RSK (S380) IC50
Experimental: Cellular P90RSK(Ser380) Phosphorylation Assay
Inhibition of PMA-stimulated P90RSK(Ser380) phosphorylation was determined by the following in vitro cellular mechanistic assay, which comprises incubating cells with a compound for 1.5 hours and quantifying fluorescent pP90RSK(Ser380) signal on fixed cells and normalizing to GAPDH signal.
Materials and Methods: HepG2 cells were obtained from ATCC and grown in DMEM supplemented with 10% fetal bovine serum. Cells were plated in 96-well plates at 35,000 cells/well and allowed to attach overnight at 37° C./5% CO2. Diluted compounds were then added at a final concentration of 0.5% DMSO. After 1.5 hour compound incubation, cells were stimulated with the addition of PMA (phorbol 12-myristate 13-acetate) at a final concentration of 100 ng/mL; the PMA stimulation was a 30-minute incubation at 37° C./5% CO2. After the 30-minute PMA stimulation, cells were washed with PBS and fixed in 3.7% formaldehyde in PBS at room temperature for 15-20 minutes. This was followed by another wash in PBS and then permeabilization in 100% MeOH at room temperature for 10-15 minutes. Following the permeabilization incubation, cells were washed in PBS/0.05% Tween-20, followed by a block in Odyssey blocking buffer (LI-COR Biosciences) for at least 1 hour. Antibodies to phosphorylated P90RSK(Ser380) (Cell Signaling #9335, rabbit monoclonal) and GAPDH (Fitzgerald 10R-G109a, mouse monoclonal) were added to the cells and incubated overnight at 4° C. pP90RSK(Ser380) antibody was used at a 1:250 dilution; GAPDH was used at a 1:10,000 dilution. After washing with PBS/0.05% Tween-20, the cells were incubated with fluorescently-labeled secondary antibodies (Anti-rabbit-Alexa Flour680, Invitrogen Cat#A21109; Anti-mouse-IRDye800CW, Rockland Inc. Cat#610-131-121) for 1 hour. Both secondary antibodies were used at a 1:1000 dilution. Cells were then washed and analyzed for fluorescence at both wavelengths using the Odyssey Infrared Imaging System (LI-COR Biosciences). Phosphorylated P90RSK(Ser380) signal was normalized to GAPDH signal. Representative date is in TABLE II (infra).

| Structure (SMILES) | IC50 |
| --- | --- |
| CN1C(=O)N(Cc2ccccc2)c2nnc3cc(-c4ccnc(Nc5ccnn5C)n4)cc1n23 [Compound I-28, 3-benzyl-5-methyl-7-(2-((1-methyl-1H-pyrazol-5-yl)amino)pyrimidin-4-yl)-3H-1,2,2a^1,3,5-pentaazaacenaphthylen-4(5H)-one] | 5.05 nM |
| Cn1nccc1Nc1nccc(-c2cc3n4c(nnc4c2)[C@@H](Cn2cc(C(F)(F)F)cn2)CCO3)n1 [(R) I-73, N-(1-methyl-1H-pyrazol-5-yl)-4-(9-((4-(trifluoromethyl)-1H-pyrazol-1-yl)methyl)-8,9-dihydro-7H-6-oxa-1,2,2a^1-triazabenzo[cd]azulen-4-yl)pyrimidin-2-amine] | 4.47 nM |
| Cn1nccc1Nc1nccc(-c2cc3n4c(nnc4c2)[C@@H](Cc2ccc(Cl)cc2)CCO3)n1 [(S) I-36, 4-(9-(4-chlorobenzyl)-8,9-dihydro-7H-6-oxa-1,2,2a^1-triazabenzo[cd]azulen-4-yl)-N-(1-methyl-1H-pyrazol-5-yl)pyrimidin-2-amine] | 2.45 nM |
| Cn1nccc1Nc1nccc(-c2cc3n4c(nnc4c2)[C@H](Oc2ccc(F)cc2)CCO3)n1 [(R) I-66, 4-(9-(4-fluorophenoxy)-8,9-dihydro-7H-6-oxa-1,2,2a^1-triazabenzo[cd]azulen-4-yl)-N-(1-methyl-1H-pyrazol-5-yl)pyrimidin-2-amine] | 1 nM |
| Cn1nccc1Nc1cc(-c2cc3n4c(nnc4c2)[C@@H](Cc2ccc(Cl)cc2)CO3)ccn1 [(R) I-48, 4-(3-(4-chlorobenzyl)-3,4-dihydro-5-oxa-1,2,2a^1-triazaacenaphthylen-7-yl)-N-(1-methyl-1H-pyrazol-5-yl)pyridin-2-amine] | 1.73 nM |
| Cn1nccc1Nc1nccc(-c2cc3n4c(nnc4c2)[C@@H](Cc2ccccc2)CO3)n1 [(R) I-15, 4-(3-benzyl-3,4-dihydro-5-oxa-1,2,2a^1-triazaacenaphthylen-7-yl)-N-(1-methyl-1H-pyrazol-5-yl)pyrimidin-2-amine] | 2.91 nM |
| CN1C(=O)C[C@H](Cc2ccc(Cl)cc2)c2nnc3cc(-c4ccnc(Nc5ccnn5C)n4)cc1n23 [(S) I-22, 9-(4-chlorobenzyl)-6-methyl-4-(2-((1-methyl-1H-pyrazol-5-yl)amino)pyrimidin-4-yl)-8,9-dihydro-1,2,2a^1,6-tetraazabenzo[cd]azulen-7(6H)-one] | 1.41 nM |
| Cn1nccc1Nc1cc(-c2cc3n4c(nnc4c2)[C@@H](Cc2ccccc2)CN3)ccn1 [(S) I-7, 4-(3-benzyl-4,5-dihydro-3H-1,2,2a^1,5-tetraazaacenaaphthylen-7-yl)-N-(1-methyl-1H-pyrazol-5-yl)pyridin-2-amine] | 3.87 nM |
| Cn1nccc1Nc1nccc(-c2cc3n4c(nnc4c2)[C@@H](Cc2ccc(F)cc2)CN3)n1 [(S) I-21, 4-(3-(4-fluorobenzyl)-4,5-dihydro-3H-1,2,2a^1,5-tetraazaacenaphthylen-7-yl)-N-(1-methyl-1H-pyrazol-5-yl)pyrimidin-2-amine] | 4.32 nM |
| Cn1nccc1Nc1nccc(-c2cc3n4c(nnc4c2)[C@@H](COCc2ccccc2)CCO3)n1 [(S) I-29, 4-(9-((benzyloxy)methyl)-8,9-dihydro-7H-6-oxa-1,2,2a^1-triazabenzo[cd]azulen-4-yl)-N-(1-methyl-1H-pyrazol-5-yl)pyrimidin-2-amine] | 7.94 nM |

Reference: US10278975B2, “Serine/threonine kinase inhibitors” (GENENTECH, INC., priority 2013, dated 2019)
